Data published in patent US20240122885A1, “Endometriosis-Related Methods and Compositions” (The Regents of the University of California, priority 2021, published 2024).

System: rat model of endometriosis
Assay: behavioral assessment of vaginal nociception (escape response) in rat model of endometriosis
Assay type: in vivo
Details: 30 mg/kg/day p.o.; for Post-Treatment period (PT) median escape response: four weeks of treatment, proestrus
From the text: Baseline vaginal nociception was first assessed in rats. Then, endometriosis was induced when rats were four months of age by suturing uterine fragments within the peritoneal cavity to generate ectopic endometrium (lesions). […] In this model, four (2 mm×2 mm) pieces of uterine horn are auto transplanted onto cascading mesenteric arteries within the pelvic cavity of rats that are hormonally and immunologically intact. The present model avoids ovariectomy followed by estradiol supplementation that is common in most mouse models which eliminates the natural estradiol variations within the estrous cycle and the ability to assess drug treatment effects on fertility.
Behavioral assessment of vaginal nociception: Volumes of water (0.01, 0.15, 0.30, 0.40, 0.55, 0.70, 0.80, and 0.90 mL) were delivered via a vaginal balloon to the rat's vaginal canal. When the previously trained rat detects this stimulus as noxious, she will poke her head into a tube to break an infrared (IR) beam. This beam break terminates the stimulus (balloon deflates). During each testing session, eight different distention volumes were delivered randomly three times each ˜60 seconds apart. The maximum latency of 15 seconds is considered to be no response. The experimenter was blinded to the volumes being delivered.
Data analyses of behavioral results: Percent escape responses as a function of distention volume were measured in each session. For each rat, the escape response percentages as a function of distention volume from all sessions for each testing period were determined. The median escape response percentage and interquartile range (IQR) for all rats from each testing period was determined.
Statistical analyses were performed using Mann Whitney U test, and p-values were corrected using the Bonferroni correction method.

CC(C(=O)O)c1cccc(Oc2ccccc2)c1 (stereo not shown) [fenoprofen]
escape responses between the baseline period and the post-treatment period (any volume of water delivered, Mann Whitney U test, Bonferroni-corrected threshold 0.05): No statistically significant difference
Post-Treatment period (PT) median escape response (volume 0.01 mL): 0%
Post-Treatment period (PT) median escape response (volume 0.15 mL): 0%
Post-Treatment period (PT) median escape response (volume 0.3 mL): 0%
Post-Treatment period (PT) median escape response (volume 0.4 mL): 16.65%
Post-Treatment period (PT) median escape response (volume 0.55 mL): 33.3%
Post-Treatment period (PT) median escape response (volume 0.7 mL): 66.6%
Post-Treatment period (PT) median escape response (volume 0.8 mL): 100%
Post-Treatment period (PT) median escape response (volume 0.9 mL): 100%
escape responses during the post-treatment period compared to the post-endo surgery period (volumes of 0.15, 0.3, 0.4, 0.55, 0.7 and 0.8 mL, Mann Whitney U test, Bonferroni-corrected threshold 0.05): significantly decreased
